In US20260035365A1, “1H-PYRROLO[3,2-B]PYRIDINE DERIVATIVES AS IRREVERSIBLE INHIBITORS OF MUTANT EGFR FOR THE TREATMENT OF CANCER” (Bayer Aktiengesellschaft, priority 2022, published 2026):

Key:
[1] = molecular target: mutEGFR (D770_N771insSVD) (Homo sapiens, UniProt P00533, INS767SVD); assay: Exon20-mutant-EGFR (D770_N771insSVD) TR-FRET kinase assay; assay type: biochemical; conditions: 2 mM ATP, 15 min preincubation
From the text: Inhibitory activity of compounds of the present invention against an Epidermal Growth Factor Receptor (EGFR) with an insertion of the amino acids sequence SVD between D770 and N771 (SEQ ID No. 5) was quantified employing the TR-FRET based kinase activity assay as described in the following paragraphs.
A recombinant fusion protein of N-terminal Glutathion-S-Transferase (GST) and a fragment of human EGFR variant (amino acids R669 to A1210 with insertion of the amino acids sequence SVD between D770 and N771 (SEQ ID No. 5) (“EGFR ins SVD”), expressed in Sf9 insect cells and purified via affinity chromatography using Glutathion Sepharose as described above, was used as a kinase. As substrate for the kinase reaction the biotinylated peptide biotin-Ahx-AEEEEYFELVAKKK (C-terminus in amide form) (SEQ ID No. 6) was used which can be purchased e.g. form the company Biosynthan GmbH (Berlin-Buch, Germany).
For the assay 50 nl of a 100-fold concentrated solution of the test compound in DMSO was pipetted into either a black low volume 384 well microtiter plate or a black 1536 well microtiter plate (both Greiner Bio-One, Frickenhausen, Germany), 2 μl of a solution of EGFR in aqueous assay buffer [50 mM Hepes pH 7.0, 10 mM MgCl2, 1 mM dithiothreitol, 0.5 mM EGTA, 0.3 mM activated sodium ortho-vanadate, 0.005% (w/v) bovine serum albumin, 0.005% (v/v) Tween-20] were added and the mixture was incubated for 15 min at 22° C. to allow pre binding of the test compounds to the enzyme before the start of the kinase reaction. […] The concentration of EGFR was adjusted depending of the activity of the enzyme lot and was chosen appropriate to have the assay in the linear range, typical concentration was 15 pg/μl. The reaction was stopped by the addition of 3 μl of a solution of HTRF detection reagents (83.3 nM streptavidine-XL665 [Cisbio Bioassays, Codolet, France] and 1.67 nM PT66-Tb-Cryptate, a terbium-cryptate labelled anti-phospho-tyrosine antibody from Cisbio Bioassays [instead of the PT66 Tb cryptate PT66 Eu Chelate from Perkin Elmer can also be used]) in an aqueous EDTA-solution (133.3 mM EDTA, 0.2% (w/v) bovine serum albumin in 50 mM HEPES pH 7.5).
The resulting mixture was incubated 1 h at 22° C. to allow the binding of the biotinylated phosphorylated peptide to the streptavidine-XL665 and the PT66-Tb-Cryptate. Subsequently, the amount of phosphorylated substrate was evaluated by measurement of the resonance energy transfer from the PT66-Tb-Cryptate to the streptavidine-XL665. Therefore, the fluorescence emissions at 620 nm and 665 nm after excitation at 337 nm were measured in a HTRF reader, e.g. a Pherastar (BMG Labtechnologies, Offenburg, Germany) or a Viewlux (Perkin-Elmer). The ratio of the emissions at 665 nm and at […] was taken as the measure for the amount of phosphorylated substrate. The data were normalised (enzyme reaction without inhibitor=0% inhibition, all other assay components but no enzyme=100% inhibition).

[2] = molecular target: mutEGFR (D770_N771insNPG, T790); assay: mutEGFR (D770_N771insNPG, T790) kinase assay; assay type: biochemical, human
BA/F3 (insSVD) cells = assay: Ba/F3 cell survival assay (Cell Titer-Glo), EGFR-insSVD; assay type: cell-based; conditions: Mus musculus, BaF3, 48 h, without IL-3, with EGF
Procedure: 293T cells from ATCC were transfected with pBABEpuro expression constructs for WT EGFR or EGFR-insSVD, or EGFR-insSVD T790M, and pCL-Eco packaging vector using Fugene-6 transfection reagent from Promega. Plates were incubated at 37° C. for 48 h. Retrovirus was harvested by filtering the media supernatant through a 0.45 μm filter.
Ba/F3 cells purchased from DSMZ were grown in RPMI+10% FBS+10 ng/mL IL-3 and infected with filtered retroviral supernatant at a 1:2 dilution. Polybrene was added to a concentration of 8 μg/mL, plates were spun for 90 min, and incubated for 16 h at 37° C. 2 μg/mL puromycin was added to the infected cells 24 h after infection and cells were continually grown in the presence of puromycin and 10 ng/mL IL-3. Following stably expressing Ba/F3 cell lines were generated: Ba/F3-EGFR-WT, Ba/F3-EGFR-insSVD, Ba/F3-EGFR-insSVD T790M, (Ba/F3-vector-control).
For cell survival assays, Ba/F3 cells were grown to a density of 1-2 million cells per mL, spun down and resuspended in media without IL-3, and replated at a concentration of 200,000-500,000 cells per mL. The cells ectopically expressing WT EGFR, EGFR-insSVD, or EGFR-insSVD T790M were plated with 10 ng/mL Millipore Culture grade EGF. The cells ectopically expressing pBABEpuro empty vector were plated with 10 ng/mL IL-3.
2 days later, cells were plated in 50 μL in a 384 well plate at a concentration of 4000 cells per well for cells assayed in the absence of IL-3 and 2000 cells per well for cells assayed in the presence of IL-3. 100 nL of compound was added to each well using a 100 nL pin head, and plates were incubated at 37° C. for 48 h.
Cell viability was measured by adding 20 μL of Cell Titer-Glo Luminescent Cell Viability Reagent diluted 1:3 in PBS. Plates were sealed with Perkin Elmer Top-Seal, inverted several times to mix, and immediately centrifuged at 1000 rpm for 2 min. Plates were incubated in low light conditions for 8-10 min and luminescence was measured.

Chain of mutEGFR (D770_N771insNPG, T790) (P00533 with tags, fused parts or gaps INS770NPG limits assumed): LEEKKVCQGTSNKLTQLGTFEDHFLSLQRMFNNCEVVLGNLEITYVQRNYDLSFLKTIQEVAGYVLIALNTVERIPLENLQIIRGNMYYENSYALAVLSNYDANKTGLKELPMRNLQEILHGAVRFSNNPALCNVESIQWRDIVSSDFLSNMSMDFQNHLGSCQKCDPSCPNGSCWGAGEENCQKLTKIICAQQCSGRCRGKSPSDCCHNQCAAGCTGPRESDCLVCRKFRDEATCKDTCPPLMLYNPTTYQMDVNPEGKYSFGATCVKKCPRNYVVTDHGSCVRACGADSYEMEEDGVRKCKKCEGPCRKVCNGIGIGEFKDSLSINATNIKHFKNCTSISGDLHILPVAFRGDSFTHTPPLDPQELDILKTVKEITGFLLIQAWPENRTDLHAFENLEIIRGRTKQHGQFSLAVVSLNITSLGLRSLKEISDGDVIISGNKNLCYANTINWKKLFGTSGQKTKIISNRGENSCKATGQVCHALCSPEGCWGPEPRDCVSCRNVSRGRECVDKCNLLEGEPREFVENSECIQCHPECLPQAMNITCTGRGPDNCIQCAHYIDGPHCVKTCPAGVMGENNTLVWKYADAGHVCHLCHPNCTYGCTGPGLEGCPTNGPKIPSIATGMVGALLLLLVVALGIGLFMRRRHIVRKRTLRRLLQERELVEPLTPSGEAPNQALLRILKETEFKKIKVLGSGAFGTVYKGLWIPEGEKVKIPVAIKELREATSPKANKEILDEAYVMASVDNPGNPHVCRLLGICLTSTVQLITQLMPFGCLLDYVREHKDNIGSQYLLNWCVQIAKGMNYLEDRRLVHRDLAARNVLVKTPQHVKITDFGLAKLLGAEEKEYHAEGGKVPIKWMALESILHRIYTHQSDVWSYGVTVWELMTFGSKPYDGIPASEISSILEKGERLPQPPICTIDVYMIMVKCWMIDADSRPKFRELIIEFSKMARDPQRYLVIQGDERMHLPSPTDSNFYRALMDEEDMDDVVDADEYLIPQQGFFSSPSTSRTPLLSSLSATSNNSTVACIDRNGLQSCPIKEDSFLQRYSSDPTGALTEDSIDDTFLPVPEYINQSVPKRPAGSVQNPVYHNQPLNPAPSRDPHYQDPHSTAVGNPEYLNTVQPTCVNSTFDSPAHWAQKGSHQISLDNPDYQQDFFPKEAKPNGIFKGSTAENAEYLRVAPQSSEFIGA
Chain of mutEGFR (D770_N771insSVD) (P00533 with tags, fused parts or gaps INS767SVD limits assumed): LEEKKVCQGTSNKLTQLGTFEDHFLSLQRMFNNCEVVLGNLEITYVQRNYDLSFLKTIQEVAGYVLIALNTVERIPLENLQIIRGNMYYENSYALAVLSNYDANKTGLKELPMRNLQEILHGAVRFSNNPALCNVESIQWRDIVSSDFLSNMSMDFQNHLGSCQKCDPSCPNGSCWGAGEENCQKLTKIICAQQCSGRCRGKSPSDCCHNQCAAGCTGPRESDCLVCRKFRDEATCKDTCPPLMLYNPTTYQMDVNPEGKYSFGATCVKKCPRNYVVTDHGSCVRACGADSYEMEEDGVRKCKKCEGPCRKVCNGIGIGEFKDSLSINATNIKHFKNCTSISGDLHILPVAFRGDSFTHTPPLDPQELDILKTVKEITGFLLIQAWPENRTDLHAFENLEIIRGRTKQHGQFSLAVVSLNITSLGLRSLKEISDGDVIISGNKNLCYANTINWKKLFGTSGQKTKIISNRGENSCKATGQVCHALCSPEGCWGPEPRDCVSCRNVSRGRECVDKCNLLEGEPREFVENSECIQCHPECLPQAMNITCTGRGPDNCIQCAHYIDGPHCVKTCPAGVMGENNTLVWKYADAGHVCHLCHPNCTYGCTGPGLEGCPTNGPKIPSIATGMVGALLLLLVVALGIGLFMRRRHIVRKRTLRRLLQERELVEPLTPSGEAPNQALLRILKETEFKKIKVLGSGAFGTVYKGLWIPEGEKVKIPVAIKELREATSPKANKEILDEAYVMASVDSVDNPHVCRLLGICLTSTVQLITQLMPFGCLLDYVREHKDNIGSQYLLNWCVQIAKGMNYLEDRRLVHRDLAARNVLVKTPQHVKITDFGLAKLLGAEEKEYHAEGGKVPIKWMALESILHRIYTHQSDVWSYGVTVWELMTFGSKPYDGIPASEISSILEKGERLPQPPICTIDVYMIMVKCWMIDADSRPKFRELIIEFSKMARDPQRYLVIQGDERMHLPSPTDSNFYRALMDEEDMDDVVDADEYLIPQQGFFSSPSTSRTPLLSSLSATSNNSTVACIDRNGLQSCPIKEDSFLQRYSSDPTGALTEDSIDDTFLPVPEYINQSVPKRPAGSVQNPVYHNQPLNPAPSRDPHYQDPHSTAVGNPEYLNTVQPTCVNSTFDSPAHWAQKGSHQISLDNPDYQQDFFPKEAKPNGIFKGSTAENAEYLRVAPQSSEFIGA

| Compound | IC50 [1] [nM] | IC50 [2] [nM] | IC50 (BA/F3 (insSVD) cells) [nM] |
| --- | --- | --- | --- |
| C=CS(=O)(=O)N1CCC[C@H]1COc1cnccc1-c1[nH]c2c(C)ccnc2c1-c1ccccc1 [Example 136, 2-(3-{[(2S)-1-(ethenesulfonyl)pyrrolidin-2-yl]methoxy}pyridin-4-yl)-7-methyl-3-phenyl-1H-pyrrolo[3,2-b]pyridine] | 0.214 | 0.706 | 8.43 |
| C=CC(=O)N(C)CCOc1cnccc1-c1[nH]c2cccnc2c1-c1ccc2cc[nH]c2c1 [Example 16, N-[2-({4-[3-(1H-indol-6-yl)-1H-pyrrolo[3,2-b]pyridin-2-yl]pyridin-3-yl}oxy)ethyl]-N-methylprop-2-enamide] | 7.65 | 32.3 | 584 |
| C=CC(=O)N1CCC[C@H]1COc1cnccc1-c1[nH]c2cccnc2c1-c1cccc(Cl)c1Cl [Example 85, 1-{(2S)-2-[({4-[3-(2,3-dichlorophenyl)-1H-pyrrolo[3,2-b]pyridin-2-yl]pyridin-3-yl}oxy)methyl]pyrrolidin-1-yl}prop-2-en-1-one] | 0.5 | 3.64 | 55.7 |
| C=CC(=O)N1C[C@@H](C)C[C@H]1COc1cnccc1-c1[nH]c2cccnc2c1-c1ccccc1 [Example 110, 1-[(2S,4S)-4-methyl-2-({[4-(3-phenyl-1H-pyrrolo[3,2-b]pyridin-2-yl)pyridin-3-yl]oxy}methyl)pyrrolidin-1-yl]prop-2-en-1-one] | 1.27 | 5.97 | 37.5 |
| C=CC(=O)N1CCC[C@H]1COc1cnccc1-c1[nH]c2cccnc2c1-c1ccc2cccnc2c1 [Example 79, 1-{(2S)-2-[({4-[3-(quinolin-7-yl)-1H-pyrrolo[3,2-b]pyridin-2-yl]pyridin-3-yl}oxy)methyl]pyrrolidin-1-yl}prop-2-en-1-one] | 4.41 | 9.38 | 367 |
| C=CC(=O)N1CCC[C@H]1COc1cnccc1-c1[nH]c2cccnc2c1-c1ccc2cc[nH]c2c1 [Example 84, 1-{(2S)-2-[({4-[3-(1H-indol-6-yl)-1H-pyrrolo[3,2-b]pyridin-2-yl]pyridin-3-yl}oxy)methyl]pyrrolidin-1-yl}prop-2-en-1-one] | 32.5 | 154 | 3560 |
| C=CS(=O)(=O)N(C)CCOc1cnccc1-c1[nH]c2cccnc2c1-c1cc(F)cc(F)c1 [Example 68, N-[2-({4-[3-(3,5-difluorophenyl)-1H-pyrrolo[3,2-b]pyridin-2-yl]pyridin-3-yl}oxy)ethyl]-N-methylethenesulfonamide] | 3.64 | 8.76 | 296 |
| C=CS(=O)(=O)N(C)C[C@H](C)Oc1cnccc1-c1[nH]c2cccnc2c1-c1ccccc1 (stereo in doubt) [Example 134, N-methyl-N—[-2-{[4-(3-phenyl-1H-pyrrolo[3,2-b]pyridin-2-yl)pyridin-3-yl]oxy}propyl]ethenesulfonamide] | 22 | 101 | 622 |
| C=CC(=O)N(C)CCOc1cnccc1-c1[nH]c2cccnc2c1-c1cc(OC)ccc1F [Example 56, N-[2-({4-[3-(2-fluoro-5-methoxyphenyl)-1H-pyrrolo[3,2-b]pyridin-2-yl]pyridin-3-yl}oxy)ethyl]-N-methylprop-2-enamide] | 152 | 395 | 4180 |
| C=CC(=O)N1CC(F)(F)C[C@H]1COc1cnccc1-c1[nH]c2cccnc2c1-c1ccccc1 [Example 112, 1-[(2S)-4,4-difluoro-2-({[4-(3-phenyl-1H-pyrrolo[3,2-b]pyridin-2-yl)pyridin-3-yl]oxy}methyl)pyrrolidin-1-yl]prop-2-en-1-one] | 0.215 | 0.979 | 17.5 |
| C=CC(=O)N1CCC[C@H]1COc1cnccc1-c1[nH]c2cccnc2c1-c1ccc2ccccc2c1 [Example 80, 1-{(2S)-2-[({4-[3-(naphthalen-2-yl)-1H-pyrrolo[3,2-b]pyridin-2-yl]pyridin-3-yl}oxy)methyl]pyrrolidin-1-yl}prop-2-en-1-one] | 0.583 | 1.86 | 162 |
| C=CC(=O)N1CCC1(C)COc1cnccc1-c1[nH]c2cccnc2c1-c1cccc(C(F)(F)F)c1 (stereo not drawn) [Example 147, 1-[(2IRS)-2-methyl-2-{[(4-{3-[3-(trifluoromethyl)phenyl]-1H-pyrrolo[3,2-b]pyridin-2-yl}pyridin-3-yl)oxy]methyl}azetidin-1-yl]prop-2-en-1-one] | 699 | 3680 | 6530 |
| C=CC(=O)N(C)CCOc1cnccc1-c1[nH]c2cccnc2c1-c1cccc(CC)c1 [Example 45, N-[2-({4-[3-(3-ethylphenyl)-1H-pyrrolo[3,2-b]pyridin-2-yl]pyridin-3-yl}oxy)ethyl]-N-methylprop-2-enamide] | 24.6 | 76.3 | 1280 |
| CN(C)CC#CC(=O)N1CCC[C@H]1COc1cnccc1-c1[nH]c2cccnc2c1-c1ccccc1 [Example 100, 4-(dimethylamino)-1-[(2S)-2-({[4-(3-phenyl-1H-pyrrolo[3,2-b]pyridin-2-yl)pyridin-3-yl]oxy}methyl)pyrrolidin-1-yl]but-2-yn-1-one] | 1.11 | 4.67 | 57.5 |
| C=CC(=O)N1C=C(F)C[C@H]1COc1cnccc1-c1[nH]c2cccnc2c1-c1ccccc1 [Example 113, 1-[(2S)-4-fluoro-2-({[4-(3-phenyl-1H-pyrrolo[3,2-b]pyridin-2-yl)pyridin-3-yl]oxy}methyl)-2,3-dihydro-1H-pyrrol-1-yl]prop-2-en-1-one] | 0.114 | 0.724 | 9.99 |
| C=CS(=O)(=O)N(C)CCOc1cnccc1-c1[nH]c2cccnc2c1-c1cccc(C(C)C)c1 [Example 70, N-methyl-N-{2-[(4-{3-[3-(propan-2-yl)phenyl]-1H-pyrrolo[3,2-b]pyridin-2-yl}pyridin-3-yl)oxy]ethyl}ethenesulfonamide] | 5.33 | 46.6 | 749 |
| C=CC(=O)N1CCC[C@H]1COc1cnccc1-c1[nH]c2cccnc2c1-c1cccc(CC)c1 [Example 78, 1-{(2S)-2-[({4-[3-(3-ethylphenyl)-1H-pyrrolo[3,2-b]pyridin-2-yl]pyridin-3-yl}oxy)methyl]pyrrolidin-1-yl}prop-2-en-1-one] | 1.04 | 2.92 | 80.2 |
